The results in this text go back to PMC2787699 (Biochemistry, 2009).

This assay deals with T1, TalrD/GalrD (Salmonella enterica, UniProt Q8ZL58).
T1 sequence (Q8ZL58 1-398): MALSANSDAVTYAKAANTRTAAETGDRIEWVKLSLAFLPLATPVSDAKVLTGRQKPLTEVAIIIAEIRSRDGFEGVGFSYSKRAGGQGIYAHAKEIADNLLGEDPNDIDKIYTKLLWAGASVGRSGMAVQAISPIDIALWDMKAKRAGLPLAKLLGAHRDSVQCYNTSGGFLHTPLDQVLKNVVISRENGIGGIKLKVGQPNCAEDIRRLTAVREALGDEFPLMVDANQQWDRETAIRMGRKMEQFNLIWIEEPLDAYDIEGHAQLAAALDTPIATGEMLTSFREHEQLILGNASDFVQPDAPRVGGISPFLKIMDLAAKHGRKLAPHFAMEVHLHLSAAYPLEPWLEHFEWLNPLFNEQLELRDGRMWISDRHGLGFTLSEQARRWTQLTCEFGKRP
Briefly: polarimetry at […] nm, product formation. Format: biochemical. As to conditions: 10 mM galactarate, 50 mM Hepes pH 8.0, 5 mM MgCl2, room temperature.

Regarding `O=C(O)[C@@H](O)[C@H](O)[C@H](O)[C@@H](O)C(=O)O` [galactarate], the “polarimetry at 589 nm, product formation” value is reported as “TalrD/GalrD produces a product with a positive rotation”.
